Measured values as given in patent US20250041249A1, “METHOD OF TREATING LIVER STEATOSIS WITH BIOAVAILABLE FORMULATION OF OLEOYLETHANOLAMIDE” (THE REGENTS OF THE UNIVERSITY OF CALIFORNIA, priority 2021, published 2025).

Tests used:
HFD-fed mice = experiment: Subchronic i.p. OEA in HFD-fed mice: body weight gain and blood chemistry; type: in vivo, mouse; details: OEA 5 mg/kg i.p. once daily for 6 weeks, mean ± S.E.M
Experimental: 18-week-old mice were randomized into two groups; one received standard chow (6.5% kcal fat, Envigo 2020X, Livermore, CA) and the other a high-fat diet (HFD, 60% kcal fat, D12492, Research Diets, New Brunswick, NJ). Both were available ad libitum for 11 weeks. Body weight and food intake were recorded three times per week. Animals from both groups were randomly assigned to three cohorts: a) free feeding, b) fasting (from 6:00 pm to 12:00 pm on the following day) and c) fasting/refeeding (2 hr access to food after fasting). Mice assigned to the fasting and fasting/refeeding groups were housed in bottom-wired cages to prevent coprophagia. OEA was dissolved in a vehicle of 95% saline/5% Tween80 (v/v) shortly before experiments. It was administered by intraperitoneal (i.p.) injection at 5 mg/kg in a volume of 10 ml/kg. A comprehensive blood chemistry panel was performed at Antech Diagnostics (Irvine, CA). Diet-induced obesity is associated with the development of liver steatosis and fibrosis. We asked whether OEA supplementation might correct these alterations in HFD-fed mice, which are defective in endogenous OEA production. We exposed mice to HFD for 5 weeks, randomized them into two groups, and treated them either with OEA (5 mg/kg, once daily) or vehicle for 6 additional weeks of HFD exposure. As expected, OEA administration reduced body weight gain and lowered circulating total cholesterol and liver transaminase levels (Table 2, FIG. 5). These effects were accompanied by improvement in hepatic lipid profile (FIG. 3). […] Transcription of other relevant genes (Nrf1, Tnfa, Tgf1b, Nqo1) was not affected (FIG. 3h-j).

liver of HFD-fed mice = experiment: Subchronic i.p. OEA in HFD-fed mice: liver lipid accumulation (Oil Red O, BODIPY, triglyceride kit); type: in vivo, mouse; details: OEA 5 mg/kg i.p. once daily 6 weeks, versus vehicle controls
Experimental: 18-week-old mice were randomized into two groups; one received standard chow (6.5% kcal fat, Envigo 2020X, Livermore, CA) and the other a high-fat diet (HFD, 60% kcal fat, D12492, Research Diets, New Brunswick, NJ). Both were available ad libitum for 11 weeks. Body weight and food intake were recorded three times per week. Animals from both groups were randomly assigned to three cohorts: a) free feeding, b) fasting (from 6:00 pm to 12:00 pm on the following day) and c) fasting/refeeding (2 hr access to food after fasting). Mice assigned to the fasting and fasting/refeeding groups were housed in bottom-wired cages to prevent coprophagia. OEA was dissolved in a vehicle of 95% saline/5% Tween80 (v/v) shortly before experiments. It was administered by intraperitoneal (i.p.) injection at 5 mg/kg in a volume of 10 ml/kg. Liver triglycerides were quantified using a colorimetric assay kit (Cayman Chemicals). Briefly, ˜30 mg of right liver lobe were mixed with 0.2 mL of assay buffer and processed following manufacturer's instructions. Oil Red O Staining: We embedded liver samples in a mold, cut them into 7-μm thick sections with a cryostat and fixed them with 4% paraformaldehyde (PFA) for 15 min. After fixation, we immersed the sections in phosphate-buffered saline (PBS) for 2 min, placed them in isopropanol (60%) for 2 min, and incubated them with Oil Red O (60% in isopropanol) for 30 min. […]

[1] = tested on: liver inflammation and fibrosis genes; experiment: Subchronic i.p. OEA in HFD-fed mice: liver gene transcription (real time PCR); type: in vivo, mouse; details: OEA 5 mg/kg i.p. once daily 6 weeks, versus vehicle controls
Experimental: 18-week-old mice were randomized into two groups; one received standard chow (6.5% kcal fat, Envigo 2020X, Livermore, CA) and the other a high-fat diet (HFD, 60% kcal fat, D12492, Research Diets, New Brunswick, NJ). Both were available ad libitum for 11 weeks. Body weight and food intake were recorded three times per week. Animals from both groups were randomly assigned to three cohorts: a) free feeding, b) fasting (from 6:00 pm to 12:00 pm on the following day) and c) fasting/refeeding (2 hr access to food after fasting). Mice assigned to the fasting and fasting/refeeding groups were housed in bottom-wired cages to prevent coprophagia.
OEA was dissolved in a vehicle of 95% saline/5% Tween80 (v/v) shortly before experiments. It was administered by intraperitoneal (i.p.) injection at 5 mg/kg in a volume of 10 ml/kg.
We extracted total RNA from liver using TRIzol™ reagent (Thermo Fisher Scientific, Waltham, MS) and purified it with the PureLink™ RNA Mini Kit (Invitrogen, Waltham, MS) as directed by the supplier. Prior to purification, samples were passed through a gDNA Eliminator spin column (Qiagen, Germantown, CA). We quantified RNA using NanoDrop 2000/2000-c spectrophotometer (Thermo Fisher Scientific). cDNA was synthesized from […] of total RNA using the High-Capacity cDNA RT Kit with RNase inhibitor (Applied BioSystems, Foster City, CA) following manufacturer's instructions. First-strand cDNA was amplified using TaqMan™ Universal PCR Master Mixture (Thermo Fisher Scientific) Real-time PCR reactions were performed in 96-well plates using the CFX96™ Real-Time System (Bio-Rad, Hercules, CA). The thermal cycling conditions were as follows: initial denaturation set at 95° C. for 10 min, followed by 45 cycles, where each cycle was performed at 95° C. for 30 s followed by 55° C. for 60 s. ΔCt values were calculated using the geometric mean of three different housekeeping genes, and the relative fold changes over control groups (chow-free feed) were calculated by the 2-44Ct method. Real-time PCR primers and fluorogenic probes were purchased from Applied Biosystems (TaqMan (R) Gene Expression Assays, Foster City, CA). We used TaqMan gene expression assays for mouse Actb (Mm00607939_s1), Hprt (Mm00446968_m1), Gapdh (Mm99999915_g1), Tnfa (Mm00443258_m1), Il1b (Mm00434228_m1), Tgfb1 (Mm_01178820_m1), Ccl2 (Mm_00441242_m1) Hmox1 (Mm_00516005_m1), Col1a1 (Mm_00801666_g1), Nqo1 (Mm_01135606_m1), Nrf1 (Mm01135606_m1), Faah (Mm_00515684_m1), and NapepId (Mm_00724596_m1) (Applied Biosystems, Foster City, CA).
Diet-induced obesity is associated with the development of liver steatosis and fibrosis. We asked whether OEA supplementation might correct these alterations in HFD-fed mice, which are defective in endogenous OEA production. We exposed mice to HFD for 5 weeks, randomized them into two groups, and treated them either with OEA (5 mg/kg, once daily) or vehicle for 6 additional weeks of HFD exposure. As expected, OEA administration reduced body weight gain and lowered circulating total cholesterol and liver transaminase levels (Table 2, FIG. 5). These effects were accompanied by improvement in hepatic lipid profile (FIG. 3). […] Transcription of other relevant genes (Nrf1, Tnfa, Tgf1b, Nqo1) was not affected (FIG. 3h-j).

PPAR-α [2] = biological target: T1, PPAR-α (Homo sapiens, UniProt Q07869); details: read-out: affinity constant, KD; cited from earlier work
T1 sequence (Q07869 1-468): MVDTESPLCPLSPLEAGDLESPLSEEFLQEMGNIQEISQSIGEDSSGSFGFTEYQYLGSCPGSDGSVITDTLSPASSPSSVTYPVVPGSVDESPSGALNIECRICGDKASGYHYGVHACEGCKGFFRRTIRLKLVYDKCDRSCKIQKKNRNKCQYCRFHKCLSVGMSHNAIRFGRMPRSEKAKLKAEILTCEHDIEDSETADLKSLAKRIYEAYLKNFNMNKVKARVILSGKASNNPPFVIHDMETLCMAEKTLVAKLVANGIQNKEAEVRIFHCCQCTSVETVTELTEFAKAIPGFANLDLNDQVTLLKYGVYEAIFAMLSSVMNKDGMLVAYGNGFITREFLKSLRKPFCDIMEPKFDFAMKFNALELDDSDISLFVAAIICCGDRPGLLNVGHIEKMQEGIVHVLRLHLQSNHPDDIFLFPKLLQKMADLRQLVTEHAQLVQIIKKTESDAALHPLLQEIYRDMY

PPAR-α [3] = biological target: T1, PPAR-α; details: PPAR-α agonist; read-out: median effective concentration, EC50; cited from earlier work

SMILES: CCCCCCCC/C=C\CCCCCCCC(=O)NCCO [OEA, oleoylethanolamide]
- A Body weight (HFD-fed mice): 2.27 ± 0.5 g
- ALT (SPGT) (HFD-fed mice): 45.4 ± 6.9 IU/L
- AST (SGOT) (HFD-fed mice): 86.1 ± 9.9 IU/L
- Cholesterol (HFD-fed mice): 173.6 ± 7.6 mg/dL
- Glucose (HFD-fed mice): 250.5 ± 19.1 mg/dL
- Triglyceride (HFD-fed mice): 81.0 ± 4.9 mg/dL
- liver lipid content (Oil Red O and BODIPY staining of liver sections) (liver of HFD-fed mice): reduced
- liver triglyceride content (liver of HFD-fed mice): lower
- liver transcription of C-C Motif Chemokine Ligand 2 (Ccl2) [1]: attenuated
- liver transcription of Nqo1 [1]: not affected
- liver transcription of Nrf1 [1]: not affected
- liver transcription of Tgf1b [1]: not affected
- liver transcription of Tnfa [1]: not affected
- liver transcription of collagen type I a1 (Col1a1) [1]: attenuated
- liver transcription of heme oxygenase 1 (Hmox1) [1]: enhanced
- liver transcription of interleukin 1B (1/1b) [1]: attenuated
- Kd (PPAR-α [2]): ~0.04 µM
- EC50 (PPAR-α [3]): ~0.12 µM
